Reference: patent US6399607B1, “Aminomethylene amide analogs of pyrazinamide with intracellular antimycobacterial activity against pyrazinamide-resistant mycobacteria combined with a rifamycin” (priority 1999, dated 2002)
Read-outs that look alike come from different tables or passages of the source.

What was measured:
Format in all cases: cell-based, Mycobacterium tuberculosis
[1] = test system: M. tuberculosis; test: Influence of pH on MICs (Table 5); set-up: unit not given beside the values; details: ATCC 35828 (PZA resistant)
[2] = test system: M. tuberculosis; test: microbe, parasite or virus in culture; set-up: MIC, PZA-resistant strain at pH 6.0: unit not given beside the values; details: for MIC, INH-resistant strain, pH 6.0 / MIC, PZA-resistant strain, pH 6.0 / MIC, INH-resistant strain, pH 6.8 / MIC, PZA-resistant strain, pH 6.8: 7H12 BACTEC broth
[3] = test system: M. tuberculosis; test: MIC in modified 7H10 broth against M. tuberculosis (Table 3); set-up: MIC, M. tuberculosis ATCC 35828: unit not given beside the values; details: ATCC 35828 (PZA resistant), pH 5.8
[4] = test system: PZA-resistant Mtb in macrophages; details: FIG. 1; in comparison with PZA or the control
[5] = test system: M. tuberculosis; set-up: unit not given beside the values; details: for MIC, M. tuberculosis ATCC 27294: ATCC 27294 = H37RV, strain susceptible to pyrazinamide; for MIC, M. tuberculosis ATCC 35822: ATCC 35822, isoniazid (INH)-resistant strain; for MIC, M. tuberculosis ATCC 35828: ATCC35828, PZA resistant strain; for MIC, M. tuberculosis MS 6210: MS6210, resistant clinical isolate
[6] = test system: M. tuberculosis

SMILES | MIC, ATCC 35828 pH 6.0 [1] | MIC, ATCC 35828 pH 6.8 [1] | MIC, INH-resistant strain, pH 6.0 ([2]; pH 6.0) [g./ml] | MIC, PZA-resistant strain, pH 6.0 ([2]; pH 6.0) [g./ml] | MIC, INH-resistant strain, pH 6.8 [2] [g./ml] | MIC, PZA-resistant strain, pH 6.8 [2] [g./ml] | MIC, PZA-resistant strain, pH 5.5 ([2]; PZA-resistant strain) [g./ml] | MIC, M. tuberculosis ATCC 35828 [3] | MIC, M. tuberculosis ATCC 27294 [5] | MIC, M. tuberculosis ATCC 35822 [5] | MIC, M. tuberculosis ATCC 35828 [5] | MIC, M. tuberculosis MS 6210 [5] | further results
O=C(NCN1CCCC1)c1cnccn1 [Compound 1, pyrazine-2-carboxylic acid (pyrrolidin-1-ylmethyl)-amide] | 100 | 100 | 100 | 100 | 100 | 100 | 100 | 2 | – | – | – | – | –
CCN(CC)CNC(=O)c1cnccn1 [Compound 2, pyrazine-2-carboxylic acid diethylaminomethyl-amide] | 100 | 100 | 100 | 100 | 100 | 100 | – | 1 | – | – | – | – | number of colony forming units (CFU) of M. tuberculosis from macrophages [4]: reduced the number of CFU
O=C(NCN1CCOCC1)c1cnccn1 [Compound 4, (morpholin-4-ylmethyl)-amide] | – | – | – | – | – | – | – | 16 | 100 | 33 | 100 | 100 | –
NC(=O)c1cnc(Cl)cn1 [Compound 5-Chloro-PZA, 5-chloro-pyrazinamide, reference compound] | – | – | – | – | – | – | – | 8 | – | – | – | – | –
CN1CCN(CNC(=O)c2cnccn2)CC1 [Compound 7, (piperazin-1-ylmethyl)-amide] | – | – | – | – | – | – | – | – | 300 | 100 | 300 | 100 | –
CN(CNC(=O)c1cnccn1)Cc1ccccc1 [Compound 8, [(benzyl-methyl-amino)-methyl]-amide] | – | – | – | – | – | – | – | – | 100 | 100 | 100 | 33 | –
CCCN(CCC)CNC(=O)c1cnccn1 [Compound 9, dipropylaminomethyl-amide] | – | – | – | – | – | – | – | – | 100 | 100 | 100 | 100 | –
CCN(CC)CNC(=O)c1cnc(N(CC)CC)cn1 [Compound 17, 5-diethylamino-pyrazinoic acid diethylaminomethyl-amide] | – | – | – | – | – | – | – | 16 | – | – | – | – | –
O=C(NCN1CCOCC1)c1cnccn1 [MZA, morphazinamide] | 100 | 100 | 100 | 100 | 100 | 100 | 100 | – | – | – | – | – | activity at pH 6.8 compared with pH levels 5.5 and 6.0 ([6]; pH 6.8 v. 5.5 and 6.0): no different from or only slightly higher than at pH levels 5.5 and 6.0; MICs against susceptible strains at pH 5.5 and 6.0 compared with PZA ([6]; susceptible strains, pH 5.5 and 6.0): in the same range as those of PZA
NC(=O)c1cnccn1 [PZA, Pyrazinamide] | >300 | >300 | 33 | >300 | >300 | >300 | > 300 | 2048 | 33 | 33 | >300 | 100 | activity against susceptible strains by pH ([6]; pH 5.5, 6.0, 6.8): active against susceptible strains at pH 5.5 and 6.0 only, and not at pH 6.8; MIC, PZA-resistant strain at pH 6.0 ([2]; PZA-resistant strain, pH 6.0): > 300
